In a melting point compilation (Tetko et al.; mined from patent text by program, amines drawn as free bases though some values may be those of a salt):

O=C1Cc2ccc(-c3cnc4[nH]c(=O)n(CC5CCCCC5)c4n3)cc2N1 showed a melting point of 334 to 336 °C. Compound COc1cccc2c1OC(CN1CCC(CNC(=O)c3cccnc3N)CC1)CO2 (stereo not given) has a melting point of 57 to 60 °C. For CCN(CC)c1ncnc2nc(-c3ccncc3)[nH]c12, the melting point was 260 to 262 °C. Work on COc1cc2c(cc1-c1nc3cc(Cl)ccc3o1)oc1ccccc12 yielded a melting point of 191 to 193 °C. With CC1CNc2c(cccc2[N+](=O)[O-])C(=O)N1Cc1ccccc1 (stereo not given) the melting point was 125 °C. For NC(=O)CNC(=O)c1cncc(-c2cccc3cc(Cc4cccc(C(F)(F)F)c4)sc23)c1, the melting point was 122 to 123 °C. COc1ccc(N2CCN(c3c(C)c(C)c4c(c3C)C(O)(Cc3ccccc3)C(C)(C)O4)CC2)cc1 (stereo not given) showed a melting point of 152 to 153 °C. CN(C)CC(=O)N1c2ccccc2NC(=O)c2cncnc21 gave a melting point of 208 to 210 °C. With O=C(NCCO)c1cccc(-c2cccc3cc(Cc4ccc(=O)[nH]c4)sc23)c1 the melting point was 134 to 137 °C. CCC(C(=O)N(C)C)n1cc(Cl)c(-c2ccccc2C)n1 (stereo not given) gave a melting point of 49.5 to 52 °C. Compound CCc1n[nH]c2c1nc(-c1ccccc1)c1ccccc12 has a melting point of 250 to 251 °C. Compound COc1ccc(Oc2cc3ccc(Cl)cc3cn2)cc1 has a melting point of 77 °C. For COCc1cc(C(C)(C)C)cc(COC)c1SSc1c(COC)cc(C(C)(C)C)cc1COC, the melting point was 94 to 95 °C. CCOC(=O)Oc1ccc(S(=O)(=O)N2c3cc(Br)ccc3-n3cccc3[C@@H]2CC)cc1 gave a melting point of 137 to 139 °C. For CCCCCCCCCCCCCCCCOc1cccc(O)c1C, the melting point was 53 to 54 °C. CC(C)Oc1ccc(-n2c(C(=O)O)c(C(=O)O)c3cc(Oc4ncccc4C(N)=O)ccc32)cc1 gave a melting point of 236 to 238 °C. With CN(C(=O)c1ccc2c(c1)nc(NC(=O)c1cccs1)n2CCCO)C1CCCCC1 the melting point was 105 to 107 °C. CC(C)n1nc(-c2c(-c3ccccc3)nn3c(N)cccc23)ccc1=O gave a melting point of 218 to 219 °C. COC(=O)/C=C/c1ccc2nn(C)cc2c1C(=O)OC gave a melting point of 232 to 234 °C. In the case of CSc1ccc(Cc2cccc(-c3c(O)c4ccc(Cl)cc4[nH]c3=O)c2)cc1, the melting point is reported as 296 to 297 °C. In the case of CN(C)C(=O)c1ccc(C(C)(C)C)c(N)c1, the melting point is reported as 186 to 188 °C. Compound CC[C@H](C)[C@H](NC[C@@H](N)CS)C(=O)N[C@@H](Cc1ccccc1)C(=O)N[C@@H](CCSC)C(=O)OCc1ccccc1 has a melting point of 71 to 78 °C. Work on O=[N+]([O-])c1c(F)cc(N2CCOCC2)cc1F yielded a melting point of 112 to 114 °C. With CCOC(=O)C1CC(O)c2c(C)c(O)c(C)c(C)c2O1 (stereo not given) the melting point was 138 to 144 °C. In the case of ONCC1(c2ccc(OCc3ccc4ccccc4n3)cc2)CCCC1, the melting point is reported as 116 to 117 °C. Compound CC1(C)NC(=O)N(c2ccc(Oc3ccccc3)cc2)C1=O has a melting point of 165 °C. COCCCN1C[C@H](O)c2cc(S(N)(=O)=O)sc2S1(=O)=O gave a melting point of 109 to 111 °C. In the case of CO/C(=C1/C(C)=C(CC(=O)O)c2cc(F)ccc21)c1ccccc1, the melting point is reported as 184 to 186 °C. For O=C(N[C@H](Cc1ccc(C(F)(F)F)cc1)[C@H](O)c1ccc(F)cc1)c1cccc2ccccc12 (racemic), the melting point was 134 to 135 °C. With O=C(O)[C@H](Cc1ccccc1)NS(=O)(=O)c1ccccc1 the melting point was 150 to 152 °C. COC(=O)c1ccc(CCl)nc1C1=NC(C)(C(C)C)C(=O)N1 (stereo not given) showed a melting point of 127 to 129 °C. COc1ccc(C(=O)Nc2ccccc2)cc1CNS(=O)(=O)c1cc(Cl)cc(Cl)c1 gave a melting point of 203 to 206 °C. CN(C(=O)c1ccc2nonc2c1)C1CCCCC1=O (stereo not given) gave a melting point of 144 to 145 °C. Compound Nc1ccccc1NC(=O)c1ccc(C(=O)Nc2cccc(Nc3nc(-c4cccnc4)cs3)c2)cn1 has a melting point of 148 to 150 °C. CC(/C=C/c1c(C)sc(C)c1C)=C(F)\C=C\C(C)=C\CO showed a melting point of 106 to 108 °C. Compound CCn1c2ccccc2c(=NN=C2NCCS2)c2ccccc21 has a melting point of 187 to 188 °C. Work on Cc1ccc(-c2c3cc(C)ccc3nc3ccc(C)cc23)cc1 yielded a melting point of 210 to 211 °C. Work on CCOC(=O)N1CCC(=C2c3ccsc3C=Cn3ccnc32)CC1 yielded a melting point of 194 °C. Work on CC(C)(C)c1cc(CCC(=O)Oc2ccccc2)ccc1O yielded a melting point of 106 to 109 °C. With CCOC(=O)C(=O)Nc1c([N+](=O)[O-])cc(C(C)=O)c2c1CCCC2 the melting point was 120 to 121 °C. Cc1ccc(NS(=O)(=O)c2ccc(Cl)nc2)c2[nH]cc(C#N)c12 gave a melting point of 262 to 263 °C. Work on CN(C(=O)OC(C)(C)C)c1cc(Oc2cc(C(C)(C)C)c(O)cc2C(C)(C)C)ccc1N yielded a melting point of 208 to 210 °C. O=C1c2cccnc2N(N2CCCCC2)C2=NCCN12 gave a melting point of 206 to 207 °C. Compound CC1(C)OC(C=Cc2ccnc3ccccc23)=CC1=O has a melting point of 117 to 118 °C. Compound CCC[C@H](CO)Nc1nc(-c2ccc(Br)cc2)cs1 has a melting point of 61 to 63 °C. COc1nc2cc(Cl)c(Cl)c(-n3c(CN4CCOCC4)nnc3-c3cccnc3)c2nc1OC gave a melting point of 178 to 179 °C. c1cc(-c2cc(C3CC3)on2)ccn1 showed a melting point of 76 to 80 °C. CC(=O)NCC1CC1c1c(-c2ccccc2)ccc2nn(C)cc12 (stereo not given) gave a melting point of 156 to 158 °C. Work on O=C(Cn1c(-c2cccc(Cl)c2)nc2cccnc21)N1CCCCC1 yielded a melting point of 140 to 150 °C. Compound O=C1NCC(CO)C1(c1ccccc1)c1ccccc1 (stereo not given) has a melting point of 145 to 148 °C. Compound CCCCCNc1nc(SC)nc2c(C)n[nH]c12 has a melting point of 88 to 90 °C. With Cc1cc(NCc2ccccc2)nc(-n2nc(C)cc2C)n1 the melting point was 136 to 137 °C. CC[C@H]1CNCC[C@H]1CCc1c[nH]c2ccccc12 gave a melting point of 150 °C. Cn1ncc(C(=O)N2CCCC2)c1C(=O)Nc1ccn2nc(-c3cccnc3)nc2c1 gave a melting point of 226 to 228 °C. With Cn1c(Cc2cccc(C(F)(F)F)c2)nc2c(-c3cccc(C(=O)NCCC#N)c3)cccc21 the melting point was 168 to 169 °C. With O=C1Cc2cc(C3=NNC(=O)SC3)ccc2N1 the melting point was over 310 °C. Compound CCC(=NO)c1cc(Br)c(O)c(CN)c1 has a melting point of 174 to 175 °C. Compound CC(=O)Nc1nc(OS(=O)(=O)c2ccccc2)ncc1F has a melting point of 142 to 143 °C. C(=Cc1ccc2nc(-c3ccccc3)oc2c1)c1ccc(-c2nc3ccccc3o2)cc1 showed a melting point of 233 to 237 °C. Work on COC(=O)c1cccc(NC(=O)NCC(=O)O)c1 yielded a melting point of 215 °C. COC(=O)C1=C(C)NN=C(c2ccccc2)C1c1cccc(Cl)c1 (stereo not given) gave a melting point of 189 °C. In the case of O=C(O)COc1cccc(CSc2nc(-c3ccccc3)c(-c3ccccc3)[nH]2)c1, the melting point is reported as 233 to 235 °C. In the case of CCOC(=O)c1cn(CC(F)(F)F)c2cc3c(cc2c1=O)OCO3, the melting point is reported as 204 to 206 °C. For c1cc(-c2noc(C3CC3)n2)ncn1, the melting point was 89 to 94 °C. In the case of CC(C)(C)c1cc(CCc2ccccc2NC(=O)NCCCc2ccccc2)cc(C(C)(C)C)c1O, the melting point is reported as 161 to 162 °C. For CC1=NC(NC(=O)Nc2cccc(C)c2)C(=O)N(CC(=O)C23CC4CC(CC(C4)C2)C3)c2c(C)cccc21 (stereo not given), the melting point was 182 to 184 °C. OCCN1CCN(c2onc3c2CCc2ccccc2-3)CC1 showed a melting point of 137 to 138 °C. C(=C\c1nc(COc2cccc(CCCCn3ccnc3)c2)co1)/c1ccccc1 gave a melting point of 75 to 76 °C. With CCOC(=O)C1=CC(C(=O)c2ccccc2O)=CN2CCc3c([nH]c4ccc(OC)cc34)C12C(=O)OCC (stereo not given) the melting point was 212 °C. For CC(C)NC(=O)CN1CCN(CC2CSC3=C(O2)c2ccccc2C(=O)C3=O)CC1 (stereo not given), the melting point was 85 to 87 °C. CCNC(=O)C1Cc2c(n(C)c3ccc(OC)cc23)C1 (stereo not given) showed a melting point of 162 to 163 °C. For N=C(NO)c1cnn2c(C(F)(F)F)cc(-c3ccc(C(F)(F)F)cc3)nc12, the melting point was 252 °C. CC(C)(C)c1cc(-c2nn(Cc3ccccc3)c3ncccc23)cc(C(C)(C)C)c1O gave a melting point of 155 to 157 °C. For Cc1nc2c(N)nc3ccccc3c2n1CCCCCCS(C)(=O)=O, the melting point was 202 to 206 °C. With CC(CC(C)(C)C)CP(=O)(O)Cc1cc(C(C)(C)C)c(O)c(C(C)(C)C)c1 (stereo not given) the melting point was 108 to 110 °C. For CCC(C)(Cc1cn(C)c2ccc(OC)cc12)[N+](=O)[O-] (stereo not given), the melting point was 95 to 96 °C. With COc1ccc(C(=O)Cc2ccncc2)c2c1OCC2C (stereo not given) the melting point was 111 to 117 °C. For CCOC(=O)COc1ccc(C(=O)c2ccccc2O)c(Cl)c1Cl, the melting point was 108 to 110 °C. COc1ccc(-c2cc(COS(C)(=O)=O)c(=O)n(Cc3ccc(F)c(F)c3)n2)cc1F showed a melting point of 146 to 147 °C. COc1ccc2c(NCCN3CCOCC3)noc2c1 showed a melting point of 85 to 86 °C. COP(=O)(CC(=O)COc1cccc(Cl)c1)OC showed a melting point of 78 to 79 °C. CC(C)c1ccc(C(=O)Cc2cccs2)c(C(C)C)c1OS(N)(=O)=O gave a melting point of 133 to 136 °C. For O=C(O)c1ccc(Br)c(CN2CCC(c3cn(Cc4ccncc4)c4ccccc34)CC2)c1, the melting point was 167 to 168 °C. O=C(Nc1nnn(CC2CC2)n1)C1c2ccccc2Oc2ccccc21 gave a melting point of 222 to 224 °C. With CC(=O)Nc1ccc(C#N)c(F)c1F the melting point was 175 to 177 °C. Compound O=C(O)c1ccc2ccc(-c3ccccc3)cc2c1 has a melting point of 244 to 245 °C. COC(=O)[C@@H]1CSCc2c(O[Si](C)(C)C(C)(C)C)cc(OC)c(C)c2C(=O)OC[C@H](O)C(=O)N1 showed a melting point of 237 to 240 °C. For CCOc1cccc(CC(=O)O)c1OCCCc1cn(-c2ccc(Cl)cn2)nc1C(CC)CC, the melting point was 92 to 93 °C. COCC1CN(c2ccc3cc(S(N)(=O)=O)ccc3c2)C(=O)O1 (stereo not given) gave a melting point of 166 to 168 °C. For O=C(c1ccc2cnccc2n1)N1CCc2ccccc2C1, the melting point was 98 to 100 °C. In the case of CCc1cccc(C)c1CNc1cc(OC)nc(NC)c1[N+](=O)[O-], the melting point is reported as 147 to 149 °C. With COc1ccccc1-c1c(CC(=O)O)oc(=O)c2ccccc12 the melting point was 143 to 144 °C. In the case of COc1ccc(N2CCN(c3ccc(NC(N)=S)cc3)CC2)cc1, the melting point is reported as 265 °C. In the case of COc1cc(Nc2c(C#N)cnc3cc(Oc4ccncc4)c(OC)cc23)c(Cl)cc1Cl, the melting point is reported as 267 to 269 °C. With Cc1c(N)c(C)c2c(c1CCCO)OCC2c1ccc(C(C)C)cc1 (stereo not given) the melting point was 110 to 111 °C. Compound CC(C)(C)[Si](C)(C)N1C(=O)C[C@H]1CI has a melting point of 71 to 72 °C. Work on CCCCCc1c(C(C)C)nc(C(C)C)c(CO)c1-c1ccc(CC)cc1 yielded a melting point of 87 to 88 °C. Work on C=CCOc1ccc(C(=O)C=Cc2cccc(OC)c2OC)cc1 yielded a melting point of 98 to 99 °C. Compound OC1CSC(Oc2cc(-c3cncnc3)cnc2Cl)C(O)C1O (stereo not given) has a melting point of 174 to 189 °C. Work on COc1ccc(C(=O)c2cccs2)c2occ(C)c12 yielded a melting point of 131 to 134 °C.
